Source: ChEMBL document CHEMBL6074678, “Selectively Antagonizing the NOD1-Mediated Inflammatory Signaling Pathway Mitigates the Gastric Inflammation Induced by Helicobacter pylori Infection” (J Med Chem, 2024)
Converted amounts (≈) assume the structure as drawn.

Assays:
[1] = biological target: Toll-like receptor 4 (Homo sapiens) (UniProt O00206); assay: Inhibition of human TLR4 at 1 uM relative to control
[2] = Metabolic stability in mouse liver microsomes assessed as half life at 1.25 uM preincubated for 5 mins followed by NADPH addition measured upto 120 mins by LC-MS/MS analysis; format: ADME, Microsome; conditions: time < 125 min
[3] = Solubility of compound in phosphate buffer at pH 7.2 to 7.4; format: physicochemical
[4] = biological target: T1, Nucleotide-binding oligomerization domain-containing protein 1 (Homo sapiens, UniProt Q9Y239); assay: Antagonist activity at human NOD1 expressed in HEK-Blue cells assessed as decrease in SEAP secretion incubated for 3 hrs followed by C12-iE-DAP stimulation for 20 hrs by spectrophotometry; format: cell-based, HEK-Blue hNOD1
T1 sequence (Q9Y239 whole entry): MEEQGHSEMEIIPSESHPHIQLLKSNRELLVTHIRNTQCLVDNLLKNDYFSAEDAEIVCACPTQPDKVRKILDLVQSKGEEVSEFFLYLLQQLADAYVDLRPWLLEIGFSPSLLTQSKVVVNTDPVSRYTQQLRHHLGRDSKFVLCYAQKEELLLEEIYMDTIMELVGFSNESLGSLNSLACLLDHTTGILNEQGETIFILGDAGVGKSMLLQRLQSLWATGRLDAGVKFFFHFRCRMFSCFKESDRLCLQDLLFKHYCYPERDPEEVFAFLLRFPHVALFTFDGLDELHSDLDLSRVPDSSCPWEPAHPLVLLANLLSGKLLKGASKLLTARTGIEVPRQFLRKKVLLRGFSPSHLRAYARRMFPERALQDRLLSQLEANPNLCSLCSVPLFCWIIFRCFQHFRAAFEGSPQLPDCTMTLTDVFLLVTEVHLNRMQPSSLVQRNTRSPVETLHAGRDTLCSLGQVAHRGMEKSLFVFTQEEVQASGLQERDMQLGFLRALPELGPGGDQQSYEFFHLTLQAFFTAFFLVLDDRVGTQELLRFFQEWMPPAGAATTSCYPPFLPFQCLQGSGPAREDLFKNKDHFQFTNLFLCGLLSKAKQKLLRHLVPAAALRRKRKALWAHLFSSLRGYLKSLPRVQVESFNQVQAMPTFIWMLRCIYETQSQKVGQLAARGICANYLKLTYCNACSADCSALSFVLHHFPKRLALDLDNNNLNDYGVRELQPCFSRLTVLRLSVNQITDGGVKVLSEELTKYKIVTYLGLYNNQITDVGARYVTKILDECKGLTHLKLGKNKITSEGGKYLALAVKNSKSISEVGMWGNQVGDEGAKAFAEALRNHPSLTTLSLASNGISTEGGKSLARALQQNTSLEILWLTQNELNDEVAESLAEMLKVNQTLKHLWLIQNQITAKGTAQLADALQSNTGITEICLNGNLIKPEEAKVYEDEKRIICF

[5] = biological target: T2, Toll-like receptor 9 (Homo sapiens) (UniProt Q9NR96); assay: Inhibition of human TLR9 at 1 uM relative to control
T2 sequence (whole entry): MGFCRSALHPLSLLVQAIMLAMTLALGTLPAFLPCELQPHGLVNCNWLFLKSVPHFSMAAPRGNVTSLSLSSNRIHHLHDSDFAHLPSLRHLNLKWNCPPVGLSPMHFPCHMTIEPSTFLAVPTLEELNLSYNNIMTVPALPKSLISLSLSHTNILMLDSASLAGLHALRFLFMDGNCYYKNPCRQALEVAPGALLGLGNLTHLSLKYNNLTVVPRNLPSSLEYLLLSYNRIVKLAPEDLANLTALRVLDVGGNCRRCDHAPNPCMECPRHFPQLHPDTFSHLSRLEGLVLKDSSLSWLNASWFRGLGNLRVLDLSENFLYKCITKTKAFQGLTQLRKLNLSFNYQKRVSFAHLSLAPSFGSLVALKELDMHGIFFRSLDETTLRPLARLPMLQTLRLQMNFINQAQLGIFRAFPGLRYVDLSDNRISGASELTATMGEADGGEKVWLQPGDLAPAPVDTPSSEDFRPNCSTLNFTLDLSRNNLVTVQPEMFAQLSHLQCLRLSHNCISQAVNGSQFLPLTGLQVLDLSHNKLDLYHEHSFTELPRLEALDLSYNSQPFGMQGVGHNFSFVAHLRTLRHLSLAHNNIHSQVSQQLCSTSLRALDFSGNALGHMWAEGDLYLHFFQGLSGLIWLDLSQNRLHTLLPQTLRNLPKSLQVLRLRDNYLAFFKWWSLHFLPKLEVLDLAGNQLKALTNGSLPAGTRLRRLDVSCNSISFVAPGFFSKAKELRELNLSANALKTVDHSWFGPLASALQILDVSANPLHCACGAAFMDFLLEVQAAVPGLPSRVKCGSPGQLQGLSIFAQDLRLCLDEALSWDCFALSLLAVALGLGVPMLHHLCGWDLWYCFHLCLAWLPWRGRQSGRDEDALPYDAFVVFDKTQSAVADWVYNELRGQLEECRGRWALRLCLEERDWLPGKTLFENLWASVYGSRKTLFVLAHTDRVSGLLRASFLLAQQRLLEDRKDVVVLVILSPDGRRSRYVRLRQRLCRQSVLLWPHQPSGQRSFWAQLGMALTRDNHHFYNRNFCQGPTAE

Toll-like receptor 4 (Homo sapiens), sequence (O00206 whole entry): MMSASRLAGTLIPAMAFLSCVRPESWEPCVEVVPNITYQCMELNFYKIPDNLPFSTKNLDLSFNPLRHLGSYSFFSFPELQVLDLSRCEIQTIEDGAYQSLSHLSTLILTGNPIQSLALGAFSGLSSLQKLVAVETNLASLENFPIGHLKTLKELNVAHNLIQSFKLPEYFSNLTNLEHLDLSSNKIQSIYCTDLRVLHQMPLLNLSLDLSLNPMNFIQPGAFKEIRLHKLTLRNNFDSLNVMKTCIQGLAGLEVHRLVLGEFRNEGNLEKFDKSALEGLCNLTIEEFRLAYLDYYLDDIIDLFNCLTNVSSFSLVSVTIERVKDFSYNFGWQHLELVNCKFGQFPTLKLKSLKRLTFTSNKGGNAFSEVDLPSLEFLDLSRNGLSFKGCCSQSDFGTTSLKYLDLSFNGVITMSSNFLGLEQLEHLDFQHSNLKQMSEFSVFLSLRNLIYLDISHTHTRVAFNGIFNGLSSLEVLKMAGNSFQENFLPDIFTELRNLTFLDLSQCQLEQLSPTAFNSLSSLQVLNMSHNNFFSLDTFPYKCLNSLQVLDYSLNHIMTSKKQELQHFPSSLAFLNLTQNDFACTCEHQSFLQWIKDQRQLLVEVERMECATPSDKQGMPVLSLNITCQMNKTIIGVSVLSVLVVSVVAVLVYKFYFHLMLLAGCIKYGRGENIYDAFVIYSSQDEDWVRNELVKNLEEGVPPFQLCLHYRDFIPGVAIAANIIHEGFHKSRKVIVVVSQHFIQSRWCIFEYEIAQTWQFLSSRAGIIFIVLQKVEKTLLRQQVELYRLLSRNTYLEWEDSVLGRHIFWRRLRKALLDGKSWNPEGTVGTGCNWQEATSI

| inhibition [1] [%] | half-life at 1.25 µM [2] [min] | solubility [3] [µg/mL] | IC50 [4] [nM] | inhibition [5] [%] | SMILES |
| --- | --- | --- | --- | --- | --- |
| 15.8 | 22.8 | 21.5 (≈ 37 µM) | 0.9 | 73.9 | CS(=O)(=O)c1ccc2nc(Cl)n(-c3ccc(Cl)c(NS(=O)(=O)c4ccc5ncsc5c4)c3)c(=O)c2c1 |
| < 10 | 26.5 | 48.8 (≈ 96.2 µM) | 2.2 | 37.6 | N#Cc1ccc2nc(Cl)n(-c3ccc(Cl)c(NS(=O)(=O)c4c(F)cccc4F)c3)c(=O)c2c1 |
| 10 | 30.1 | 44.6 (≈ 79.6 µM) | 0.8 | 37.1 | CS(=O)(=O)c1ccc2nc(Cl)n(-c3ccc(Cl)c(NS(=O)(=O)c4c(F)cccc4F)c3)c(=O)c2c1 |
